In one assay the target is adenosine A2B receptor (Homo sapiens (Human), UniProt P29275). The assay can be described thus: Adenosine receptor activity assay (Table 1), A2B activity. It is filed as biochemical. Conditions: for Ratio: A2A activity to A2B activity (A2A/A2B); for IC50: read-out: Ave A2B cAMP IC50.
The target in a further assay is adenosine A2A receptor (Homo sapiens (Human), UniProt P29274). The assay can be described thus: Adenosine receptor activity assay (Table 1), A2A activity. It is filed as biochemical. The note with it: read-out: Ave A2A cAMP IC50.
Sequence of adenosine A2A receptor (P29274 whole entry): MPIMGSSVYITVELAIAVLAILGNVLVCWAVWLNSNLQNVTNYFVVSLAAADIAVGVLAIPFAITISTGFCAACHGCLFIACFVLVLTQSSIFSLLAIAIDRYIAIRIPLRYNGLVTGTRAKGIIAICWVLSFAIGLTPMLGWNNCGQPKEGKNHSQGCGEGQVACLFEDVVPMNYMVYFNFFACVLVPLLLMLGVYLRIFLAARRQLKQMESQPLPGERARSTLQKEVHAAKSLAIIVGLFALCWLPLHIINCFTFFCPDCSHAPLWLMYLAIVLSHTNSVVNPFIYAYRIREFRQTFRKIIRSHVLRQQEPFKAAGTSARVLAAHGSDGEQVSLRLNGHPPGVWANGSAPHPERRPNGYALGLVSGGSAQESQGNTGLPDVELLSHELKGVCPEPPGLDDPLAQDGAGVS

Sequence of adenosine A2B receptor (P29275 whole entry): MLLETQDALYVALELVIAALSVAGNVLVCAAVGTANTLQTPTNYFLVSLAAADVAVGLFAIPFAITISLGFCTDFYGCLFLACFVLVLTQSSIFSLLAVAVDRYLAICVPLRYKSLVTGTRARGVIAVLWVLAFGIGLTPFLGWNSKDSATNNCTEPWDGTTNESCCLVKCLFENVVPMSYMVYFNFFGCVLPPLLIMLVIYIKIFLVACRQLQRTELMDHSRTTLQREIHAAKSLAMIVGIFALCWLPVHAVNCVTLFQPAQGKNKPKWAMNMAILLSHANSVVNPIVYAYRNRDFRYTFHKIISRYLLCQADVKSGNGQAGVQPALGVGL

With `C[C@H](Nc1nc(C(=O)N2CCCOC2)c2sccc2n1)c1ccccn1` [Example Z289, (S)-(1,3-Oxazinan-3-yl)(2-((1-(pyridin-2-yl)ethyl)amino)thieno[3,2-d]pyrimidin-4-yl)methanone], the Ratio at adenosine A2B receptor was 14.69. Also, the figures for the IC50 on adenosine A2B receptor and at adenosine A2A receptor were 100 to 500 nM and above 500 nM, respectively.
On the same counts, the results for `C[C@H](Nc1nc(C(=O)NCc2nccn2C)c2sccc2n1)c1ccccn1` [Example Z290, (S)—N-((1-Methyl-1H-imidazol-2-yl)methyl)-2-((1-(pyridin-2-yl)ethyl)amino)thieno[3,2-d]pyrimidine-4-carboxamide] are 1.63, above 500 nM and above 500 nM.
On the same counts, the results for `CO[C@H]1C[C@@H](NC(=O)c2nc(N[C@@H](C)c3cccnc3)nc3ccsc23)C1` [Example Z296, N-((1s,3R)-3-Methoxycyclobutyl)-2-(((S)-1-(pyridin-3-yl)ethyl)amino)thieno[3,2-d]pyrimidine-4-carboxamide] are 1.07, 100 to 500 nM and 100 to 500 nM.
On the same counts, the results for `C[C@H](Nc1nc(C(=O)Nc2ccccc2)c2sccc2n1)c1ccccn1` [Example Z303, (S)—N-Phenyl-2-((1-(pyridin-2-yl)ethyl)amino)thieno[3,2-d]pyrimidine-4-carboxamide] are 3.08, 50 to 100 nM and 100 to 500 nM.
For `C[C@H](Nc1nc(C(=O)NCc2ncc[nH]2)c2sccc2n1)c1ccccn1` [Example Z304, (S)—N-((1H-Imidazol-2-yl)methyl)-2-((1-(pyridin-2-yl)ethyl)amino)thieno[3,2-d]pyrimidine-4-carboxamide], on adenosine A2B receptor, the Ratio is listed as 2.03 and the IC50 fell in the range of 100 to 500 nM. Further, the IC50 at adenosine A2A receptor lay in the range of 100 to 500 nM.
Turning to `C[C@H](Nc1nc(C(=O)N[C@H]2C[C@H](O)C2)c2sccc2n1)c1cncc(Cl)c1` [Example Z306, 2-(((S)-1-(5-Chloropyridin-3-yl)ethyl)amino)-N-((1r,3S)-3-hydroxycyclobutyl)thieno[3,2-d]pyrimidine-4-carboxamide], on adenosine A2B receptor, the Ratio was determined as 40.62. Moreover, the IC50 at adenosine A2B receptor was 10 to 50 nM; on adenosine A2A receptor it was above 500 nM.
In the case of `COc1cncc(NC(=O)c2nc(N[C@@H](C)c3ccccn3)nc3ccsc23)c1` [Example Z307, (S)—N-(5-Methoxypyridin-3-yl)-2-((1-(pyridin-2-yl)ethyl)amino)thieno[3,2-d]pyrimidine-4-carboxamide], on adenosine A2B receptor, the Ratio came out at 5.89 and the IC50 was in the range of 10 to 50 nM. Also, the IC50 at adenosine A2A receptor was 100 to 500 nM.
On the same counts, the results for `C[C@H](Nc1nc(C(=O)N2CC[C@@H](NC(=O)OC(C)(C)C)C2)c2sccc2n1)c1cccnc1` [Example Z313, tert-Butyl ((R)-1-(2-(((S)-1-(pyridin-3-yl)ethyl)amino)thieno[3,2-d]pyrimidine-4-carbonyl)pyrrolidin-3-yl)carbamate] are 0.29, above 500 nM and 100 to 500 nM.
In the same order, the values of `C[C@H](Nc1nc(C(=O)N2CC[C@H](NC(=O)OC(C)(C)C)C2)c2sccc2n1)c1cccnc1` [Example Z314, tert-Butyl ((S)-1-(2-(((S)-1-(pyridin-3-yl)ethyl)amino)thieno[3,2-d]pyrimidine-4-carbonyl)pyrrolidin-3-yl)carbamate] are 0.46, 100 to 500 nM and 50 to 100 nM.
For `C[C@H](Nc1nc(C(=O)N2CC[C@H](NC(=O)OC(C)(C)C)C2)c2sccc2n1)c1ccccn1` [Example Z315, tert-Butyl ((S)-1-(2-(((S)-1-(pyridin-2-yl)ethyl)amino)thieno[3,2-d]pyrimidine-4-carbonyl)pyrrolidin-3-yl)carbamate], at adenosine A2B receptor, the Ratio was 0.67 and the IC50 was in the range of 50 to 100 nM. The IC50 at adenosine A2A receptor lay within 50 to 100 nM.
As to `CC(=O)N[C@@H]1CCN(C(=O)c2nc(N[C@@H](C)c3cccnc3)nc3ccsc23)C1` [Example Z316, N—((R)-1-(2-(((S)-1-(Pyridin-3-yl)ethyl)amino)thieno[3,2-d]pyrimidine-4-carbonyl)pyrrolidin-3-yl)acetamide], at adenosine A2B receptor, the Ratio amounted to 2.06 and the IC50 was above 500 nM. The IC50 at adenosine A2A receptor is above 500 nM.
Consider `CC(=O)N[C@@H]1CCN(C(=O)c2nc(N[C@@H](C)c3ccccn3)nc3ccsc23)C1` [Example Z317, N—((R)-1-(2-(((S)-1-(Pyridin-2-yl)ethyl)amino)thieno[3,2-d]pyrimidine-4-carbonyl)pyrrolidin-3-yl)acetamide], for which, on adenosine A2B receptor, the Ratio is listed as 6.69 and the IC50 is above 500 nM. Besides, the 50% inhibitory concentration (IC50) at adenosine A2A receptor was above 500 nM.
On to `CC(=O)N[C@@H]1CCN(C(=O)c2nc(NCc3cncc(F)c3)nc3ccsc23)C1` [Example Z318, (R)—N-(1-(2-(((5-Fluoropyridin-3-yl)methyl)amino)thieno[3,2-d]pyrimidine-4-carbonyl)pyrrolidin-3-yl)acetamide], for which, on adenosine A2B receptor, the Ratio is listed as 17.41 and the IC50 is above 500 nM. The IC50 on adenosine A2A receptor is above 500 nM.
Regarding `CC(=O)N[C@@H]1CCN(C(=O)c2nc(N[C@@H](C)c3cncc(F)c3)nc3ccsc23)C1` [Example Z319, N—((R)-1-(2-(((S)-1-(5-Fluoropyridin-3-yl)ethyl)amino)thieno[3,2-d]pyrimidine-4-carbonyl)pyrrolidin-3-yl)acetamide], at adenosine A2B receptor, the Ratio was 22.72. Also, the IC50 at adenosine A2B receptor was 50 to 100 nM; at adenosine A2A receptor, above 500 nM.
With `COC[C@@H](Nc1nc(C(=O)NC[C@H](C)O)c2sccc2n1)c1cccnc1` [Example Z320, N—((S)-2-Hydroxypropyl)-2-(((S)-2-methoxy-1-(pyridin-3-yl)ethyl)amino)thieno[3,2-d]pyrimidine-4-carboxamide], on adenosine A2B receptor, the Ratio came out at 3.92. Further, the figures for the IC50 at adenosine A2B receptor and on adenosine A2A receptor were 50 to 100 nM and 100 to 500 nM, respectively.
Turning to `COC[C@@H](Nc1nc(C(=O)NC[C@@H](C)O)c2sccc2n1)c1cccnc1` [Example Z321, N—((R)-2-Hydroxypropyl)-2-(((S)-2-methoxy-1-(pyridin-3-yl)ethyl)amino)thieno[3,2-d]pyrimidine-4-carboxamide], on adenosine A2B receptor, the Ratio was determined as 3.66 and the IC50 was in the range of 50 to 100 nM. Further, the IC50 on adenosine A2A receptor is 100 to 500 nM.
For the compound `CC(=O)N[C@H]1CCN(C(=O)c2nc(N[C@@H](C)c3cccnc3)nc3ccsc23)C1` [Example Z322, N—((S)-1-(2-(((S)-1-(Pyridin-3-yl)ethyl)amino)thieno[3,2-d]pyrimidine-4-carbonyl)pyrrolidin-3-yl)acetamide], the Ratio on adenosine A2B receptor was 6.33. For the same compound, the results for the 50% inhibitory concentration (IC50) on adenosine A2B receptor and on adenosine A2A receptor were 100 to 500 nM and above 500 nM, respectively.
For the compound `COC[C@H](Nc1nc(C(=O)NC[C@H](C)O)c2sccc2n1)c1cccnc1` [Example Z323, N—((S)-2-Hydroxypropyl)-2-(((R)-2-methoxy-1-(pyridin-3-yl)ethyl)amino)thieno[3,2-d]pyrimidine-4-carboxamide], at adenosine A2B receptor, the Ratio is listed as 3.30 and the IC50 is above 500 nM. Besides, at adenosine A2A receptor, the IC50 is above 500 nM.
On to `CC(=O)N[C@H]1CCN(C(=O)c2nc(N[C@@H](C)c3ccccn3)nc3ccsc23)C1` [Example Z324, N—((S)-1-(2-(((S)-1-(Pyridin-2-yl)ethyl)amino)thieno[3,2-d]pyrimidine-4-carbonyl)pyrrolidin-3-yl)acetamide], for which, on adenosine A2B receptor, the Ratio was 28.39 and the IC50 is 10 to 50 nM. Moreover, the IC50 at adenosine A2A receptor was above 500 nM.
On the same counts, the results for `COC[C@H](Nc1nc(C(=O)NC[C@@H](C)O)c2sccc2n1)c1cccnc1` [Example Z325, N—((R)-2-Hydroxypropyl)-2-(((R)-2-methoxy-1-(pyridin-3-yl)ethyl)amino)thieno[3,2-d]pyrimidine-4-carboxamide] are 1.87, above 500 nM and above 500 nM.
In the same order, the values of `CC(=O)N[C@H]1CCN(C(=O)c2nc(NCc3cncc(F)c3)nc3ccsc23)C1` [Example Z330, (S)—N-(1-(2-(((5-Fluoropyridin-3-yl)methyl)amino)thieno[3,2-d]pyrimidine-4-carbonyl)pyrrolidin-3-yl)acetamide] are 196.86, below 10 nM and above 500 nM.
On the same counts, the results for `C[C@H](NC(=O)c1nc(N[C@@H](C)c2ccncc2)nc2ccsc12)c1ccncc1` [Example Z338, N—((S)-1-(Pyridin-4-yl)ethyl)-2-(((S)-1-(pyridin-4-yl)ethyl)amino)thieno[3,2-d]pyrimidine-4-carboxamide] are 1.50, 100 to 500 nM and above 500 nM.
Take `C[C@H](Nc1nc(C(=O)NCCC2CCN(C(=O)OC(C)(C)C)CC2)c2sccc2n1)c1ccccn1` [Example Z342, tert-Butyl (S)-4-(2-(2-((1-(Pyridin-2-yl)ethyl)amino)thieno[3,2-d]pyrimidine-4-carboxamido)ethyl)piperidine-1-carboxylate]: at adenosine A2B receptor, the Ratio came to 2.11 and the IC50 was in the range of 100 to 500 nM. In addition, on adenosine A2A receptor, the IC50 was in the range of 100 to 500 nM.
For `C[C@H](Nc1nc(C(=O)NCCC2CCN(C(=O)OC(C)(C)C)CC2)c2sccc2n1)c1cncc(F)c1` [Example Z343, tert-Butyl (S)-4-(2-(2-((1-(5-Fluoropyridin-3-yl)ethyl)amino)thieno[3,2-d]pyrimidine-4-carboxamido)ethyl)piperidine-1-carboxylate], the IC50 on adenosine A2B receptor was 50 to 100 nM; at adenosine A2A receptor it was 100 to 500 nM.
As to `C[C@H](Nc1nc(C(=O)N2CCCC2)c2sccc2n1)c1ccncc1` [Example Z344, (S)-(2-((1-(Pyridin-4-yl)ethyl)amino)thieno[3,2-d]pyrimidin-4-yl)(pyrrolidin-1-yl)methanone], at adenosine A2B receptor, the Ratio is 8.03 and the IC50 fell in the range of 10 to 50 nM. Besides, on adenosine A2A receptor, the IC50 is 100 to 500 nM.
In the same order, the values of `COc1ccc(CNC(=O)c2nc(N[C@@H](C)c3ccncc3)nc3ccsc23)cn1` [Example Z345, (S)—N-((6-Methoxypyridin-3-yl)methyl)-2-((1-(pyridin-4-yl)ethyl)amino)thieno[3,2-d]pyrimidine-4-carboxamide] are 1.41, 50 to 100 nM and 100 to 500 nM.

(Values after patent US11254686B1 (Corvus Pharmaceuticals, Inc., priority 2017, dated 2022).)
